Assay results: patent US7935707B2, “Imidazole derivatives” (Hoffman-La Roche Inc., priority 2007, dated 2011)

The compounds below were run against T1, human chemokine receptor 2 isoform B (Homo sapiens, UniProt P41597) (assay: Calcium mobilization assay). Settings: CHOK1-CCR2B-A5 cells; antagonist activity against 20 nM MCP-1; FLIPR, Fluo-4.
T1 construct: host or cells: CHOK1-CCR2B-A5 (CHO-K1)
T1 sequence (P41597 1-360 isoform P41597-2): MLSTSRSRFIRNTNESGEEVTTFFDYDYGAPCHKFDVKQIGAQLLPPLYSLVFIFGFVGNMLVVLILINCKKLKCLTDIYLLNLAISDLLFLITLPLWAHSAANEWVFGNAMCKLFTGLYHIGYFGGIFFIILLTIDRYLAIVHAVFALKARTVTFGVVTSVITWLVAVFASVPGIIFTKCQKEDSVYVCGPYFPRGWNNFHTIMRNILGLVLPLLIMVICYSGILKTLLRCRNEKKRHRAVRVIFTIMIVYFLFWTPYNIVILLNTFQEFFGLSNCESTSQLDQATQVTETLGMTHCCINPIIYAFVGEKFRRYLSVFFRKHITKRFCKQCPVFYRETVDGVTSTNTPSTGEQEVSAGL
Assay type: cell-based
Method: Calcium Mobilization Assay
CHOK1-CCR2B-A5 cells (from Euroscreen) stably overexpressing the human chemokine receptor 2 isoform B were cultured in Nutrient Hams F12 medium supplemented with 5% FBS, 100 U/ml penicillin, 100 μg/ml streptomycin, 400 μg/ml G418 and 5 μg/ml puromycin. For the assay cells were grown overnight in 384-well black clear flat bottom polystyrene plates (Costar) at 37° C. at 5% CO2. After washing with DMEM, 20 mM Hepes, 2.5 mM probenecid, 0.1% BSA (DMEM assay buffer) cells were loaded with 4 μM Fluo-4 in the same DMEM assay buffer for 2 hours at 30° C. Excess dye was removed and cells were washed with DMEM assay buffer. 384-well compound plates were prepared with DMEM assay buffer/0.5% DMSO with or without various concentrations of test compounds. Usually compounds were tested for agonist and antagonist activity.
Test compounds were added to the assay plate and agonist activity was monitored as fluorescence for 80 seconds with a FLIPR (488 nm excitation; 510-570 nm emission; Molecular Devices). After 20-30 min. of incubation at 30° C., 20 nM MCP-1 (R&D; Roche) was added and fluorescence was monitored again for 80 seconds. Increases in intracellular calcium are reported as maximum fluorescence after agonist exposure minus basal fluorescence before exposure. Antagonist activity is indicated as inhibitor concentration required for 50% inhibition of specific calcium increases.

SMILES | IC50
Cn1c(-c2cccc(OC(F)(F)F)c2)nc(-c2cncnc2)c1C(=O)N1CCC(N2CCCC2)CC1 [Example 22, [3-Methyl-5-pyrimidin-5-yl-2-(3-trifluoromethoxy-phenyl)-3H-imidazol-4-yl]-(4-pyrrolidin-1-yl-piperidin-1-yl)-methanone] | 90 nM
Cn1c(-c2cccc(C(F)(F)F)c2)nc(I)c1C(=O)N1CCC(N2CCCC2)CC1 [Example 36, [5-Iodo-3-methyl-2-(3-trifluoromethyl-phenyl)-3H-imidazol-4-yl]-(4-pyrrolidin-1-yl-piperidin-1-yl)-methanone] | 18 nM
CCCCCCc1cccc(-c2nc(I)c(C(=O)N3CCCN(CCO)CC3)n2C)c1 [Example 3, [2-(3-Hexyl-phenyl)-5-iodo-3-methyl-3H-imidazol-4-yl]-[4-(2-hydroxy-ethyl)-[1,4]diazepan-1-yl]-methanone] | 130 nM
CCCCCCc1cccc(-c2nc(I)c(C(=O)N3CCC(N(CC)CC)C3)n2C)c1 (racemic) [Example 1, (rac)-(3-Diethylamino-pyrrolidin-1-yl)-[2-(3-hexyl-phenyl)-5-iodo-3-methyl-3H-imidazol-4-yl]-methanone] | 120 nM
Cn1c(-c2cccc(OC(F)(F)F)c2)nc(I)c1C(=O)N1CCC(N2CCC[C@@H]2CO)CC1 [Example 46, [4-((R)-2-Hydroxymethyl-pyrrolidin-1-yl)-piperidin-1-yl]-[5-iodo-3-methyl-2-(3-trifluoromethoxy-phenyl)-3H-imidazol-4-yl]-methanone] | 160 nM
CCc1nc(-c2cccc(OC(F)(F)F)c2)n(C)c1C(=O)N1CCC(N2CCCC2)CC1 [Example 25, [5-Ethyl-3-methyl-2-(3-trifluoromethoxy-phenyl)-3H-imidazol-4-yl]-(4-pyrrolidin-1-yl-piperidin-1-yl)-methanone] | 71 nM
C#Cc1nc(-c2cccc(CCCCCC)c2)n(C)c1C(=O)N1CCC(N2CCCC2)CC1 [Example 13, [5-Ethynyl-2-(3-hexyl-phenyl)-3-methyl-3H-imidazol-4-yl]-(4-pyrrolidin-1-yl-piperidin-1-yl)-methanone] | 35 nM
CCCCCCc1cccc(-c2nc(C#N)c(C(=O)N3CCC(N4CCCC4)CC3)n2C)c1 [Example 18, 2-(3-Hexyl-phenyl)-1-methyl-5-(4-pyrrolidin-1-yl-piperidine-1-carbonyl)-1H-imidazole-4-carbonitrile] | 75 nM
